The text below walks through data of patent publication US4559362A, “Immunopotentiator” (Zaidan Hojin Biseibutsu Kagaku Kenkyu Kai, priority 1982, dated 1985).

The test has as its system IMC ascites tumor. The test is described as follows: Concomitant treatment with bleomycin and spermidine on IMC ascites tumor, survival. Format: in vivo, CDF1 mice. How it is done: The pharmacological effects of spermidine will be illustrated by reference to the following experimental examples, in which spermidine was administered as its phosphate dissolved in physiological saline.
(c) 1×10^6 IMC cancer cells were transplanted into CDF1 mice by intraperitoneal injection (Day 0). Bleomycin (5 mg/kg) was administered once daily for 5 consecutive days, and spermidine (5 mg/kg) was administered a total of 10 times on alternative days. The effect of concomitant treatment with spermidine and the anticancer drug was evaluated by considering the number of days that the mice survived.

For the substance bleomycin [reference compound], the “Survival rate on Day 60” value (bleomycin (5 mg/kg) alone) is on record as 0/10. The Survival period (bleomycin (5 mg/kg) alone, once daily for 5 consecutive days) was 31.2 ± 9.4 days. The “Increase of life span” value (bleomycin (5 mg/kg) alone, control = 100) is given as 176%. Also, the “life span increase compared with the control group” value (bleomycin alone) turned out to be 76%.
